Test results taken from patent publication US20030133905A1, “Composition for treating contact lenses in the eye” (priority 2001, published 2003).

Biological target: T1, hen egg lysozyme (Gallus gallus, UniProt P00698)
T1 construct: 1 mg/ml of hen egg lysozyme; from tissue; host or cells: hen egg
Test: Stabilization of lysozyme against heat denaturation, read out as lysis of M. luteus suspension (optical density at 450 nm)
Type: biochemical
Settings: saline with 20 mM buffering agent
Method: Each solution included saline and 20 mM of buffering agent as identified in Table 1 below. To each test solution was added 1 mg/ml of hen egg lysozyme as well as a phosphate buffered saline (PBS) control. The test solutions were mixed slowly with a stir bar until the lysozyme was incorporated into the solutions. Five ml of each lysozyme-containing test solution was retained as the unheated control. The remaining 5 ml of each lysozyme-containing test solution were placed in glass lens vials, capped with silicone stoppers and incubated in a shaking water bath at 80° C., 40 revolutions per minute (rpm) for 1 hour. These heating conditions are sufficient to denature the lysozyme, absent a stabilization effect provided by the buffering agents. The vials were allowed to come to ambient temperature before testing. A 0.00025g/ml suspension of M. luteus was prepared from lyophilized cells in PBS. The suspension was continually mixed on a stir plate during the testing period to prevent the suspension from settling. For each set of test solutions, the following were tested (sample): a heated lysozyme-containing test solution (“lysozyme+heat”); an unheated lysozyme-containing test solution (“lysozyme/no heat”); and a test solution without lysozyme (“no lysozyme”). One ml of each sample was placed into a glass test tube to which 9 ml of M. luteus suspension was added and vortexed. A 1-ml sub-sample was placed into a disposable cuvette and evaluated on a UV-vis spectrophotometer at 450 nm. This procedure was performed for each sample at 0, 5 and 10 minutes. Each of the solutions was evaluated in triplicate. Each of the three optical density measurements from the triplicate samples was averaged. […] As shown by the test data set forth below in the Table 3, the lens drop solutions containing tromethamine were very effective at stabilizing the protein against denaturation.

[1] = lysozyme + heat (80° C., 1 hour), 1 mg/ml lysozyme
[2] = lysozyme/no heat, 1 mg/ml lysozyme, M. luteus suspension

T1 sequence (P00698 19-147): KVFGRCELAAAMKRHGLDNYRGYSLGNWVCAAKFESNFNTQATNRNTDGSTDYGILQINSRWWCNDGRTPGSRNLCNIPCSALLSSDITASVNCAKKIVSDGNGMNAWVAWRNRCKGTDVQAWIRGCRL

Row | Compound | optical density at 450 nm, Time 0 Min [1] | optical density at 450 nm, Time 5 Min [1] | optical density at 450 nm, Time 10 Min [1] | optical density at 450 nm, Time 0 Min [2] | optical density at 450 nm, Time 5 Min [2] | optical density at 450 nm, Time 10 Min [2] | optical density at 450 nm, Time 0 Min (no lysozyme) | optical density at 450 nm, Time 5 Min (no lysozyme) | optical density at 450 nm, Time 10 Min (no lysozyme)
1 | O=C(O)CC(O)(CC(=O)O)C(=O)O [Citrate] | 0.877 | 0.851 | 0.785 | 0.654 | 0.049 | 0.030 | 0.857 | 0.850 | 0.850
2 | NC(CO)(CO)CO [Tris, 2-amino-2-hydroxymethyl-1,3-propanediol] | 0.810 | 0.154 | 0.117 | 0.654 | 0.048 | 0.028 | 0.859 | 0.854 | 0.854
3 | Phosphate | 0.861 | 0.858 | 0.852 | 0.634 | 0.052 | 0.029 | 0.856 | 0.852 | 0.854
4 | Borate | 0.872 | 0.681 | 0.390 | 0.619 | 0.053 | 0.034 | 0.853 | 0.853 | 0.854
